Starred links: 1 amine or outer side, 2 acyl side, 3 side chain; linkers in the order of their positions; H or OH if unused. Non-standard residues stand in square brackets, D forms with d. Residues, ends and D or L forms follow the SMILES beside them. Groups on a side chain read outwards from the residue. *: point of attachment. γGlu = O=C(O)[C@H](CCC(=O)[*:2])N[*:1]; Palmitoyl = CCCCCCCCCCCCCCCC(=O)*; Aib = CC(C)(N)C(=O)O
Key:
glucagon receptor = target: T1, glucagon receptor (Homo sapiens, UniProt P47871); test: cAMP induction, firefly luciferase reporter assay, glucagon receptor; format: cell-based; conditions: for Activity at Glucagon Receptor % Relative Activity: compared to native glucagon
T1 construct: expressed in transfected cells; host or cells: HEK293
Method: (§1) The ability of each peptide to induce cAMP was measured in a firefly luciferase-based reporter assay.
(§2) At the end of the incubation, 100 μL of LucLite luminescence substrate reagent (Perkin Elmer, Wellesley, Mass.) were added to each well. The plate was shaken briefly, incubated 10 min in the dark and light output was measured on MicroBeta-1450 liquid scintillation counter (Perkin-Elmer, Wellesley, Mass.).

GLP-1 receptor = target: T2, GLP-1 receptor (Homo sapiens, UniProt P43220); test: cAMP induction, firefly luciferase reporter assay, GLP-1 receptor; format: cell-based; conditions: for Activity at GLP-1 Receptor % Relative Activity: compared to native GLP-1
T2 construct: expressed in transfected cells; host or cells: HEK293
Method: as §1, §2

[1] = Activity at GLP-1 Receptor EC50 [pM], Table 3A
[2] = Activity at Glucagon Receptor EC50 [pM], Table 3A

T1 sequence (P47871 26-477): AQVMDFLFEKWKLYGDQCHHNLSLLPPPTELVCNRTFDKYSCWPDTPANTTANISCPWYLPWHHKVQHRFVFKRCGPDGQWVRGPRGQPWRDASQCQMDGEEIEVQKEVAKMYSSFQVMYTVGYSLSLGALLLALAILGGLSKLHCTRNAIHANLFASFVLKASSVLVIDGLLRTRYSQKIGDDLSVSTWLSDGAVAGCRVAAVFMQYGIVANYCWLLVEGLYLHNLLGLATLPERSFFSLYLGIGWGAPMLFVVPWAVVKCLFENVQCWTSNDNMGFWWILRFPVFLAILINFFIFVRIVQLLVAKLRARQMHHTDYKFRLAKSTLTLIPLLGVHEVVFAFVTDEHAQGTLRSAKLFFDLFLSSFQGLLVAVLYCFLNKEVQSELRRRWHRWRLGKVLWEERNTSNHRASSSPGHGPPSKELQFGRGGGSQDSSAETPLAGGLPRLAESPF
T2 sequence (P43220 24-463): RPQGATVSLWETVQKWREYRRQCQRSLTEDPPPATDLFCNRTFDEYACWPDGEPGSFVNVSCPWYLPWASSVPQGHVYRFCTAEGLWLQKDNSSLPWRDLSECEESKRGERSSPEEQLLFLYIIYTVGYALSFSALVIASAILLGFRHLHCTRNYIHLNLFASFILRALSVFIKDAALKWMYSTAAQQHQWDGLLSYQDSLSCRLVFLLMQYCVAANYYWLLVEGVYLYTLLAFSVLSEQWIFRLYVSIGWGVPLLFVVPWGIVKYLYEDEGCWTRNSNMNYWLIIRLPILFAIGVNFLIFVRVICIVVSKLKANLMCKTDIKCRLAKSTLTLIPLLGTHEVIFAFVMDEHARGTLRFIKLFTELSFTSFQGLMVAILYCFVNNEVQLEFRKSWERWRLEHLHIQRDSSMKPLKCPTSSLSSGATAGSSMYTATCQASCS

Row | Compound | Activity at Glucagon Receptor % Relative Activity (glucagon receptor; Table 3A) | Activity at GLP-1 Receptor % Relative Activity (GLP-1 receptor; Table 3A) | EC50 (GLP-1 receptor; [1]) | EC50 (glucagon receptor; [2]) | EC50 (glucagon receptor; Activity at Glucagon Receptor EC50 [nM], Table 6) | Activity at Glucagon Receptor % Relative Activity (glucagon receptor; Table 6) | EC50 (GLP-1 receptor; Activity at GLP-1 Receptor EC50 [nM], Table 6) | Activity at GLP-1 Receptor % Relative Activity (GLP-1 receptor; Table 6)
1 | CCCCCCCCCCCCCCCC(=O)N[C@@H](CCC(=O)N[C@@H](CCC(=O)NCCCC[C@H](NC(=O)[C@H](CC(=O)O)NC(=O)[C@H](CO)NC(=O)[C@@H](NC(=O)[C@H](Cc1ccccc1)NC(=O)[C@@H](NC(=O)CNC(=O)[C@H](CCC(=O)O)NC(=O)C(C)(C)NC(=O)[C@@H](N)Cc1c[nH]cn1)[C@@H](C)O)[C@@H](C)O)C(=O)N[C@@H](CO)C(=O)N[C@@H](CCCCN)C(=O)N[C@@H](Cc1ccc(O)cc1)C(=O)N[C@@H](CC(C)C)C(=O)N[C@@H](CC(=O)O)C(=O)NC(C)(C)C(=O)N[C@@H](CCCNC(=N)N)C(=O)N[C@@H](C)C(=O)N[C@@H](C)C(=O)N[C@@H](CCC(N)=O)C(=O)N[C@@H](CC(=O)O)C(=O)N[C@@H](Cc1ccccc1)C(=O)N[C@H](C(=O)N[C@@H](CCC(N)=O)C(=O)N[C@@H](Cc1c[nH]c2ccccc12)C(=O)N[C@@H](CC(C)C)C(=O)N[C@@H](CCSC)C(=O)N[C@@H](CC(=O)O)C(=O)N[C@H](C(N)=O)[C@@H](C)O)C(C)C)C(=O)O)C(=O)O [compound 45] (H-H[Aib]EGTFTSDK([γGlu-γGlu-Palmitoyl])SKYLD[Aib]RAAQDFVQWLMDT-NH2; N-terminus assumed) | 75% | 759% | 3 pM |  |  |  |  | 
2 | CCCCCCCCCCCCCCCC(=O)N[C@@H](CCC(=O)N[C@@H](CCC(=O)NCCCC[C@H](NC(=O)[C@H](CC(=O)O)NC(=O)[C@H](CO)NC(=O)[C@@H](NC(=O)[C@H](Cc1ccccc1)NC(=O)[C@@H](NC(=O)CNC(=O)[C@H](CCC(N)=O)NC(=O)C(C)(C)NC(=O)[C@@H](N)Cc1c[nH]cn1)[C@@H](C)O)[C@@H](C)CC)C(=O)N[C@@H](CO)C(=O)N[C@@H](CCCCN)C(=O)N[C@@H](Cc1ccc(O)cc1)C(=O)N[C@@H](CC(C)C)C(=O)N[C@@H](CC(=O)O)C(=O)NC(C)(C)C(=O)N[C@@H](CCCNC(=N)N)C(=O)N[C@@H](C)C(=O)N[C@@H](C)C(=O)N[C@@H](CCC(N)=O)C(=O)N[C@@H](CC(=O)O)C(=O)N[C@@H](Cc1ccccc1)C(=O)N[C@H](C(=O)N[C@@H](CCC(N)=O)C(=O)N[C@@H](Cc1c[nH]c2ccccc12)C(=O)N[C@@H](CC(C)C)C(=O)N[C@@H](CCSC)C(=O)N[C@@H](CC(=O)O)C(=O)N[C@H](C(=O)O)[C@@H](C)O)C(C)C)C(=O)O)C(=O)O [compound 46] | 2800% | 4.9% |  |  |  |  |  | 
3 | CCCCCCCCCCCCCCCC(=O)N[C@@H](CCC(=O)N[C@@H](CCC(=O)NCCCC[C@H](NC(=O)[C@H](CC(=O)O)NC(=O)[C@H](CO)NC(=O)[C@@H](NC(=O)[C@H](Cc1ccccc1)NC(=O)[C@@H](NC(=O)CNC(=O)[C@H](CCC(N)=O)NC(=O)C(C)(C)NC(=O)[C@@H](N)Cc1c[nH]cn1)[C@@H](C)O)[C@@H](C)O)C(=O)N[C@@H](CO)C(=O)N[C@@H](CCCCN)C(=O)N[C@@H](Cc1ccc(O)cc1)C(=O)N[C@@H](CC(C)C)C(=O)N[C@@H](CCC(=O)O)C(=O)NC(C)(C)C(=O)N[C@@H](CCCNC(=N)N)C(=O)N[C@@H](C)C(=O)N[C@@H](C)C(=O)N[C@@H](CCC(N)=O)C(=O)N[C@@H](CC(=O)O)C(=O)N[C@@H](Cc1ccccc1)C(=O)N[C@H](C(=O)N[C@@H](CCC(N)=O)C(=O)N[C@@H](Cc1c[nH]c2ccccc12)C(=O)N[C@@H](CC(C)C)C(=O)N[C@@H](CCSC)C(=O)N[C@@H](CC(=O)O)C(=O)N[C@H](C(N)=O)[C@@H](C)O)C(C)C)C(=O)O)C(=O)O [compound 48] (H-H[Aib]QGTFTSDK([γGlu-γGlu-Palmitoyl])SKYLE[Aib]RAAQDFVQWLMDT-NH2; N-terminus assumed) | 1194% | 384% | 6 pM | 3 pM |  |  |  | 
4 | CCCCCCCCCCCCCCCC(=O)N[C@@H](CCC(=O)N[C@@H](CCC(=O)NCCCC[C@H](NC(=O)[C@H](CC(=O)O)NC(=O)[C@H](CO)NC(=O)[C@@H](NC(=O)[C@H](Cc1ccccc1)NC(=O)[C@@H](NC(=O)CNC(=O)[C@H](CCC(N)=O)NC(=O)C(C)(C)NC(=O)[C@@H](N)Cc1c[nH]cn1)[C@@H](C)O)[C@@H](C)O)C(=O)N[C@@H](CO)C(=O)N[C@@H](CCCCN)C(=O)N[C@@H](Cc1ccc(O)cc1)C(=O)N[C@@H](CC(C)C)C(=O)N[C@@H](CC(=O)O)C(=O)NC(C)(C)C(=O)N[C@@H](CCCNC(=N)N)C(=O)N[C@@H](C)C(=O)N[C@@H](C)C(=O)N[C@@H](CCC(N)=O)C(=O)N[C@@H](CC(=O)O)C(=O)N[C@@H](Cc1ccccc1)C(=O)N[C@H](C(=O)N[C@@H](CCC(N)=O)C(=O)N[C@@H](Cc1c[nH]c2ccccc12)C(=O)N[C@@H](CC(C)C)C(=O)N[C@@H](CC(C)C)C(=O)N[C@@H](CC(=O)O)C(=O)N[C@H](C(N)=O)[C@@H](C)O)C(C)C)C(=O)O)C(=O)O [compound 49] | 511% | 375% | 6 pM |  |  |  |  | 
5 | CCCCCCCCCCCCCCCC(=O)N[C@@H](CCC(=O)NCCCC[C@H](NC(=O)[C@H](CC(=O)O)NC(=O)[C@H](CO)NC(=O)[C@@H](NC(=O)[C@H](Cc1ccccc1)NC(=O)[C@@H](NC(=O)CNC(=O)[C@H](CCC(N)=O)NC(=O)[C@@H](CO)NC(=O)[C@@H](N)Cc1c[nH]cn1)[C@@H](C)O)[C@@H](C)O)C(=O)N[C@@H](CO)C(=O)N[C@@H](CCCCN)C(=O)N[C@@H](Cc1ccc(O)cc1)C(=O)N[C@@H](CC(C)C)C(=O)N[C@@H](CC(=O)O)C(=O)N[C@@H](CCC(=O)O)C(=O)N[C@@H](CCCNC(=N)N)C(=O)N[C@@H](C)C(=O)N[C@@H](C)C(=O)N[C@@H](CCC(N)=O)C(=O)N[C@@H](CC(=O)O)C(=O)N[C@@H](Cc1ccccc1)C(=O)N[C@H](C(=O)N[C@@H](CCC(N)=O)C(=O)N[C@@H](Cc1c[nH]c2ccccc12)C(=O)N[C@@H](CC(C)C)C(=O)N[C@@H](CC(C)C)C(=O)N[C@@H](CC(=O)O)C(=O)N[C@H](C(N)=O)[C@@H](C)O)C(C)C)C(=O)O [compound 51] | 314% | 949% | 3.9 pM | 3.5 pM | 4 pM | 314% | 4 pM | 949%

Continued, values first:

Row | Activity at Glucagon Receptor % Relative Activity (glucagon receptor; Table 3A) | Activity at GLP-1 Receptor % Relative Activity (GLP-1 receptor; Table 3A) | EC50 (GLP-1 receptor; [1]) | EC50 (glucagon receptor; [2]) | EC50 (glucagon receptor; Activity at Glucagon Receptor EC50 [nM], Table 6) | Activity at Glucagon Receptor % Relative Activity (glucagon receptor; Table 6) | EC50 (GLP-1 receptor; Activity at GLP-1 Receptor EC50 [nM], Table 6) | Activity at GLP-1 Receptor % Relative Activity (GLP-1 receptor; Table 6) | Compound
6 | 661% | 524% |  |  |  |  |  |  | CCCCCCCCCCCCCCCC(=O)N[C@@H](CCC(=O)N[C@@H](CCC(=O)NCCCC[C@H](NC(=O)[C@H](CC(=O)O)NC(=O)[C@H](CO)NC(=O)[C@@H](NC(=O)[C@H](Cc1ccccc1)NC(=O)[C@@H](NC(=O)CNC(=O)[C@H](CCC(N)=O)NC(=O)[C@@H](CO)NC(=O)[C@@H](N)Cc1c[nH]cn1)[C@@H](C)O)[C@@H](C)O)C(=O)N[C@@H](CO)C(=O)N[C@@H](CCCCN)C(=O)N[C@@H](Cc1ccc(O)cc1)C(=O)N[C@@H](CC(C)C)C(=O)N[C@@H](CC(=O)O)C(=O)NC(C)(C)C(=O)N[C@@H](CCCNC(=N)N)C(=O)N[C@@H](C)C(=O)N[C@@H](C)C(=O)N[C@@H](CCC(N)=O)C(=O)N[C@@H](CC(=O)O)C(=O)N[C@@H](Cc1ccccc1)C(=O)N[C@H](C(=O)N[C@@H](CCC(N)=O)C(=O)N[C@@H](Cc1c[nH]c2ccccc12)C(=O)N[C@@H](CC(C)C)C(=O)N[C@@H](CCSC)C(=O)N[C@@H](CC(=O)O)C(=O)N[C@H](C(N)=O)[C@@H](C)O)C(C)C)C(=O)O)C(=O)O [compound 44] (H-H[dS]QGTFTSDK([γGlu-γGlu-Palmitoyl])SKYLD[Aib]RAAQDFVQWLMDT-NH2; N-terminus assumed)
7 | 1000% | 500% | 5 pM | 2 pM |  |  |  |  | CCCCCCCCCCCCCCCC(=O)N[C@@H](CCC(=O)N[C@@H](CCC(=O)NCCCC[C@H](NC(=O)[C@H](CC(=O)O)NC(=O)[C@H](CO)NC(=O)[C@@H](NC(=O)[C@H](Cc1ccccc1)NC(=O)[C@@H](NC(=O)CNC(=O)[C@H](CCC(N)=O)NC(=O)C(C)(C)NC(=O)[C@@H](N)Cc1c[nH]cn1)[C@@H](C)O)[C@@H](C)O)C(=O)N[C@@H](CO)C(=O)N[C@@H](CCCCN)C(=O)N[C@@H](Cc1ccc(O)cc1)C(=O)N[C@@H](CC(C)C)C(=O)N[C@@H](CC(=O)O)C(=O)N[C@@H](CCC(=O)O)C(=O)N[C@@H](CCCNC(=N)N)C(=O)N[C@@H](C)C(=O)N[C@@H](C)C(=O)N[C@@H](CCC(N)=O)C(=O)N[C@@H](CC(=O)O)C(=O)N[C@@H](Cc1ccccc1)C(=O)N[C@H](C(=O)N[C@@H](CCC(N)=O)C(=O)N[C@@H](Cc1c[nH]c2ccccc12)C(=O)N[C@@H](CC(C)C)C(=O)N[C@@H](CCSC)C(=O)N[C@@H](CC(=O)O)C(=O)N[C@H](C(N)=O)[C@@H](C)O)C(C)C)C(=O)O)C(=O)O [compound 50]
8 | 379% | 1276% | 2.9 pM | 2.9 pM |  |  |  |  | CCCCCCCCCCCCCCCC(=O)N[C@@H](CCC(=O)NCCCC[C@H](NC(=O)[C@H](CC(=O)O)NC(=O)[C@H](CO)NC(=O)[C@@H](NC(=O)[C@H](Cc1ccccc1)NC(=O)[C@@H](NC(=O)CNC(=O)[C@H](CCC(N)=O)NC(=O)C(C)(C)NC(=O)[C@@H](N)Cc1c[nH]cn1)[C@@H](C)O)[C@@H](C)O)C(=O)N[C@@H](CO)C(=O)N[C@@H](CCCCN)C(=O)N[C@@H](Cc1ccc(O)cc1)C(=O)N[C@@H](CC(C)C)C(=O)N[C@@H](CC(=O)O)C(=O)N[C@@H](CCC(=O)O)C(=O)N[C@@H](CCC(N)=O)C(=O)N[C@@H](C)C(=O)N[C@@H](C)C(=O)N[C@@H](CCCCN)C(=O)N[C@@H](CCC(=O)O)C(=O)N[C@@H](Cc1ccccc1)C(=O)N[C@H](C(=O)N[C@@H](C)C(=O)N[C@@H](Cc1c[nH]c2ccccc12)C(=O)N[C@@H](CC(C)C)C(=O)N[C@@H](CC(C)C)C(=O)N[C@@H](CC(=O)O)C(=O)N[C@H](C(N)=O)[C@@H](C)O)[C@@H](C)CC)C(=O)O [compound 52]

From patent US8703701B2 (Indiana University Research and Technology Corporation, priority 2009, dated 2014)
